This passage reports IC50 results from patent publication US12281122B1, “PI3K inhibitors” (Cogent Biosciences, Inc., priority 2023, dated 2025).

pIC50: −log10 of the molar value. A value given as a limit tells only on which side of the number the result lay.

Assay [1] relates to T47D (PI3Kα-H1047R) cell line. The assay is described as follows: HTRF phospho-AKT(S473) cell assay in T47D cells. The following applies: Homo sapiens, 2 hours compound incubation. The format is cell-based, human. Summed up: (§1)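 pAKT(S473) in lysates read by HTRF after a 2 h, 37 °C compound exposure (12-point 1:3 series, max 0.5% DMSO). SKBR3 (wild type, top 10 μM) received 70 ng/ml PDGF-BB during the final 15 min; T47D (H1047R, top 5 μM) was unstimulated. IC50 values derived from the dose-response.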
(Time-resolved FRET reads energy transfer from a long-lived donor to a nearby acceptor.)

Assay [2] has as its system SKBR3 (PI3Kα-Wild Type) cell line. Nature of the assay: HTRF phospho-AKT(S473) cell assay in SKBR3 cells. The following applies: Homo sapiens, SK-BR-3, 2 hours compound incubation, PDGF-BB stimulated. Format: cell-based, human. Summed up: as §1
Where [3] appears, read: T47D (PI3Kα-H1047R) cells, HTRF phospho-AKT(S473).
[4] abbreviates: SKBR3 (PI3Kα-Wild Type) cells, HTRF phospho-AKT(S473).
[5] abbreviates: HTRF phospho-AKT(S473), T47D (PI3Kα-H1047R) cells.
Where [6] appears, read: HTRF phospho-AKT(S473), SKBR3 (PI3Kα-Wild Type) cells.

In general, pIC50 refers to −log10 of the IC50, conventionally taken in molar units. A low value points to a large IC50. Consider `Cc1cc([C@@H](C)Nc2ccc(Cl)nc2C(=O)NS(C)(=O)=O)c2nc(-c3ccc(N4CC5CCC(C4)C5O)nc3)n(C)c(=O)c2c1` (stereo partly drawn) [Compound 305, 6-chloro-3-(((1R)-1-(2-(6-(8-hydroxy-3-azabicyclo[3.2.1]octan-3-yl)pyridin-3-yl)-3,6-dimethyl-4-oxo-3,4-dihydroquinazolin-8-yl)ethyl)amino)-N-(methylsulfonyl) picolinamide], for which the pIC50 was over 6.60 in assay [1] (setting [3]) and at most 5.30 in assay [2] (setting [4]).

Take `Cc1cc([C@@H](C)Nc2ccc(Cl)nc2C(=O)NS(C)(=O)=O)c2nc(N3CCN(c4ccc(C#N)cn4)[C@@H](C)C3)n(C)c(=O)c2c1` [Compound 196, 6-chloro-3-(((R)-1-(2-((S)-4-(5-cyanopyridin-2-yl)-3-methylpiperazin-1-yl)-3,6-dimethyl-4-oxo-3,4-dihydroquinazolin-8-yl)ethyl)amino)-N-(methylsulfonyl) picolinamide]: the pIC50 in assay [1] (setting [3]) is over 6.60; in assay [2] (setting [4]) it was 5.30 to 6.00.

As to `Cc1cc([C@@H](C)Nc2ccc(Cl)nc2C(=O)NS(C)(=O)=O)c2nc(N3CCC[C@@H](Oc4cnccn4)C3)n(C)c(=O)c2c1` [Compound 375, 6-chloro-3-(((R)-1-(3,6-dimethyl-4-oxo-2-((R)-3-(pyrazin-2-yloxy)piperidin-1-yl)-3,4-dihydroquinazolin-8-yl)ethyl)amino)-N-(methylsulfonyl) picolinamide], the negative-log IC50 (pIC50) in assay [1] (setting [3]) was 6.30 to 6.60; in assay [2] (setting [4]) it was at most 5.30.

Take `COC(=O)NS(=O)(=O)c1nc(Cl)ccc1N[C@H](C)c1cc(C)cc2c(=O)n(C)c(N3Cc4ccc(F)cc4C3)nc12` [Compound 131, methyl (R)-((6-chloro-3-((1-(2-(5-fluoroisoindolin-2-yl)-3,6-dimethyl-4-oxo-3,4-dihydroquinazolin-yl)ethyl)amino)pyridin-2-yl)sulfonyl) carbamate]: the pIC50 is 6.00 to 6.30 in assay [1] (setting [3]) and at most 5.30 in assay [2] (setting [4]).

Consider `Cc1cc([C@@H](C)Nc2ccc(Cl)nc2C(=O)NS(C)(=O)=O)c2nc(N3CC[C@H](Nc4ncc(Cl)cn4)C3)n(C)c(=O)c2c1` [Compound 738, 6-chloro-3-(((R)-1-(2-((S)-3-((5-chloropyrimidin-2-yl)amino)pyrrolidin-1-yl)-3,6-dimethyl-4-oxo-3,4-dihydroquinazolin-8-yl)ethyl)amino)-N-(methylsulfonyl) picolinamide], for which the pIC50 in assay [1] (setting [5]) is 6.30 to 6.60; in assay [2] (setting [6]) it was at most 5.30.

For the molecule `Cc1cc([C@@H](C)Nc2ccc(Cl)nc2C(=O)NS(C)(=O)=O)c2nc(C3CCN(c4cnn(C)c4)CC3)n(C)c(=O)c2c1` [Compound 227, (R)-6-chloro-3-((1-(3,6-dimethyl-2-(1-(1-methyl-1H-pyrazol-4-yl)piperidin-4-yl)-4-oxo-3,4-dihydroquinazolin-8-yl)ethyl)amino)-N-(methylsulfonyl) picolinamide], the pIC50 was over 6.60 in assay [1] (setting [3]) and 5.30 to 6.00 in assay [2] (setting [4]).

Consider `Cc1cc([C@@H](C)Nc2ccc(Cl)nc2C(=O)NS(C)(=O)=O)c2nc(-c3cnc(N(C)C)nc3)n(C)c(=O)c2c1` [Compound 852, (R)-6-chloro-3-((1-(2-(2-(dimethylamino)pyrimidin-5-yl)-3,6-dimethyl-4-oxo-3,4-dihydroquinazolin-8-yl)ethyl)amino)-N-(methylsulfonyl) picolinamide], for which the pIC50 in assay [1] (T47D (PI3Kα-H1047R) cell line, phospho-AKT(S473) HTRF) is 6.30 to 6.60; in assay [2] (SKBR3 (PI3Kα-Wild Type) cell line, phospho-AKT(S473) HTRF), at most 5.30.

`Cc1cc([C@@H](C)Nc2ccc(Cl)nc2C(=O)NS(C)(=O)=O)c2nc(N3Cc4cn(CC(F)F)nc4C3)n(C)c(=O)c2c1` [Compound 230, (R)-6-chloro-3-((1-(2-(2-(2,2-difluoroethyl)-2,6-dihydropyrrolo[3,4-c]pyrazol-5(4H)-yl)-3,6-dimethyl-4-oxo-3,4-dihydroquinazolin-8-yl)ethyl)amino)-N-(methylsulfonyl) picolinamide]: the figures for the pIC50 in assay [1] (setting [3]) and in assay [2] (setting [4]) were over 6.60 and 5.30 to 6.00, respectively.

For `Cc1cc([C@@H](C)Nc2ccc(Cl)nc2C(=O)NS(C)(=O)=O)c2nc(N3CCN(c4cnn(C)c4)CC3)n(C)c(=O)c2c1` [Compound 188, (R)-6-chloro-3-((1-(3,6-dimethyl-2-(4-(1-methyl-1H-pyrazol-4-yl)piperazin-1-yl)-4-oxo-3,4-dihydroquinazolin-8-yl)ethyl)amino)-N-(methylsulfonyl) picolinamide], the pIC50 in assay [1] (setting [3]) is over 6.60; in assay [2] (setting [4]), 5.30 to 6.00.

In the case of `Cc1cc([C@@H](C)Nc2ccc(Cl)nc2C(=O)NS(C)(=O)=O)c2nc(N3Cc4cn(CC(C)(C)O)nc4C3)n(C)c(=O)c2c1` [Compound 216, (R)-6-chloro-3-((1-(2-(2-(2-hydroxy-2-methylpropyl)-2,6-dihydropyrrolo[3,4-c]pyrazol-5(4H)-yl)-3,6-dimethyl-4-oxo-3,4-dihydroquinazolin-8-yl)ethyl)amino)-N-(methylsulfonyl) picolinamide], the negative logarithm of the IC50 (pIC50) in assay [1] (setting [3]) is over 6.60; in assay [2] (setting [4]), 5.30 to 6.00.

`Cc1cc([C@@H](C)Nc2ccc(Cl)nc2C(=O)NS(C)(=O)=O)c2nc(N3Cc4cn(C5CC(F)(F)C5)nc4C3)n(C)c(=O)c2c1` [Compound 693, (R)-6-chloro-3-((1-(2-(2-(3,3-difluorocyclobutyl)-2,6-dihydropyrrolo[3,4-c]pyrazol-5(4H)-yl)-3,6-dimethyl-4-oxo-3,4-dihydroquinazolin-8-yl)ethyl)amino)-N-(methylsulfonyl) picolinamide]: the results for the pIC50 in assay [1] (setting [5]) and in assay [2] (setting [6]) were over 6.60 and 5.30 to 6.00, respectively.

`Cc1cc([C@@H](C)Nc2ccc(Cl)nc2C(=O)NS(C)(=O)=O)c2nc(N3C[C@@H]4[C@H](C3)[C@H]4c3nc(C)no3)n(C)c(=O)c2c1` [Compound 742, 6-chloro-3-(((R)-1-(3,6-dimethyl-2-((1R,5S,6R)-6-(3-methyl-1,2,4-oxadiazol-5-yl)-3-azabicyclo[3.1.0]hexan-3-yl)-4-oxo-3,4-dihydroquinazolin-8-yl)ethyl)amino)-N-(methylsulfonyl) picolinamide]: the negative logarithm of the IC50 (pIC50) in assay [1] (setting [5]) was 6.30 to 6.60; in assay [2] (setting [6]), 5.30 to 6.00.

For `C[C@@H](Nc1ccc(Cl)nc1C(=O)NS(C)(=O)=O)c1cc(F)cc2c(=O)n(C)c(N3C[C@@H]4[C@H](C3)[C@H]4c3ccn(C)n3)nc12` [Compound 373, 6-chloro-3-(((R)-1-(6-fluoro-3-methyl-2-((1R,5S,6R)-6-(1-methyl-1H-pyrazol-3-yl)-3-azabicyclo[3.1.0]hexan-3-yl)-4-oxo-3,4-dihydroquinazolin-8-yl)ethyl)amino)-N-(methylsulfonyl) picolinamide], the figures for the pIC50 in assay [1] (setting [3]) and in assay [2] (setting [4]) were 6.30 to 6.60 and 5.30 to 6.00, respectively.

With `Cc1cc([C@@H](C)Nc2ccc(Cl)nc2C(=O)NS(C)(=O)=O)c2nc(N3C[C@@H]4[C@H](C3)[C@H]4c3nc(C)nn3C(F)F)n(C)c(=O)c2c1` [Compound 643, 6-chloro-3-(((R)-1-(2-((1R,5S,6R)-6-(1-(difluoromethyl)-3-methyl-1H-1,2,4-triazol-5-yl)-3-azabicyclo[3.1.0]hexan-3-yl)-3,6-dimethyl-4-oxo-3,4-dihydroquinazolin-8-yl)ethyl)amino)-N-(methylsulfonyl) picolinamide], the negative logarithm of the IC50 (pIC50) is 6.30 to 6.60 in assay [1] (setting [5]) and at most 5.30 in assay [2] (setting [6]).

For `Cc1cc([C@@H](C)Nc2ccc(Cl)nc2C(=O)NS(C)(=O)=O)c2nc(N3CCN(c4ccc(F)cn4)CC3)n(C)c(=O)c2c1` [Compound 574, (R)-6-chloro-3-((1-(2-(4-(5-fluoropyridin-2-yl)piperazin-1-yl)-3,6-dimethyl-4-oxo-3,4-dihydroquinazolin-8-yl)ethyl)amino)-N-(methylsulfonyl) picolinamide], the negative-log IC50 (pIC50) is 6.30 to 6.60 in assay [1] (setting [5]) and 5.30 to 6.00 in assay [2] (setting [6]).

With `CC(=O)N1CCC(c2ccc(-c3nc4c([C@@H](C)Nc5ccc(Cl)nc5C(=O)NS(C)(=O)=O)cc(C)cc4c(=O)n3C)cc2F)CC1` [Compound 786, (R)-3-((1-(2-(4-(1-acetylpiperidin-4-yl)-3-fluorophenyl)-3,6-dimethyl-4-oxo-3,4-dihydroquinazolin-8-yl)ethyl)amino)-6-chloro-N-(methylsulfonyl) picolinamide], the figures for the negative-log IC50 (pIC50) in assay [1] (setting [5]) and in assay [2] (setting [6]) were over 6.60 and 5.30 to 6.00, respectively.

Consider `Cc1cc([C@@H](C)Nc2ccc(Cl)nc2C(=O)NS(C)(=O)=O)c2nc(N3CCO[C@H](c4ccccc4)C3)n(C)c(=O)c2c1` [Compound 689, 6-chloro-3-(((R)-1-(3,6-dimethyl-4-oxo-2-((R)-2-phenylmorpholino)-3,4-dihydroquinazolin-8-yl)ethyl)amino)-N-(methylsulfonyl) picolinamide], for which the values for the pIC50 in assay [1] (setting [5]) and in assay [2] (setting [6]) were over 6.60 and 5.30 to 6.00, respectively.

For the molecule `Cc1cc([C@@H](C)Nc2ccc(Cl)nc2C(=O)NS(C)(=O)=O)c2nc(N3CCC(c4c(F)cnn4C)CC3)n(C)c(=O)c2c1` [Compound 412, (R)-6-chloro-3-((1-(2-(4-(4-fluoro-1-methyl-1H-pyrazol-5-yl)piperidin-1-yl)-3,6-dimethyl-4-oxo-3,4-dihydroquinazolin-8-yl)ethyl)amino)-N-(methylsulfonyl) picolinamide], the negative logarithm of the IC50 (pIC50) was over 6.60 in assay [1] (setting [3]) and 5.30 to 6.00 in assay [2] (setting [4]).

On to `Cc1cc([C@@H](C)Nc2ccc(Cl)nc2C(=O)NS(C)(=O)=O)c2nc(N3CCC[C@@H](Oc4cccnc4)C3)n(C)c(=O)c2c1` [Compound 343, 6-chloro-3-(((R)-1-(3,6-dimethyl-4-oxo-2-((R)-3-(pyridin-3-yloxy)piperidin-1-yl)-3,4-dihydroquinazolin-8-yl)ethyl)amino)-N-(methylsulfonyl) picolinamide], for which the negative logarithm of the IC50 (pIC50) was 6.30 to 6.60 in assay [1] (setting [3]) and at most 5.30 in assay [2] (setting [4]).
